Reference: patent publication US11937603B2, “Maleimide derivatives having herbicidal activity, agronomic compositions of the maleimide derivatives, and uses thereof” (Gowan Company, LLC, priority 2018, dated 2024)

Experiments:
Format in all cases: in vivo
Digitaria sanguinalis = test: Herbicidal activity in post-emergence; details: dose of 250 g/ha, post-emergence (BBCH 11-12), twenty-one days after treatment, vs untreated control
Method: (§1) The herbicidal activity of the compounds of the invention in post-emergence was evaluated according to the following operating modes.
(§2) The plant species of interest (weeds or crops) were sown in pots with a diameter greater than 10 cm, a height of 10 cm and containing sandy soil. Six pots were used for each plant species.
(§3) Water was added to each pot in an amount suitable for the germination of the seeds. The pots were then divided into two groups each containing 3 pots for each weed or crop.
(§4) Upon reaching the phenological stage of the plants with 1-2 extended leaves (BBCH 11-12), the first group of pots was treated with the same hydroacetone dispersion containing 20% acetone by volume, the compound under evaluation at the desired dose and Tween 20 at 0.5% by weight, indicated in Example 6.
(§5) The second group was treated only with a hydroacetone solution containing acetone at 20% by volume and Tween 20 at 0.5% by weight, and was used as a comparison term (control).
(§6) All the pots were kept under observation in a conditioned environment (greenhouse) under the following environmental conditions: • temperature: 24° C. during the day and 18° C. at night • relative humidity: >50% • photoperiod: 16 hours; • light intensity: 12,000 lux.
(§7) The pots were uniformly watered as needed, so as to ensure a degree of humidity sufficient for a good development of the plants.
(§8) Twenty-one days after treatment, the herbicidal activity was evaluated according to the percentage of damage (scale 0-100%) found on the treated plants compared to the untreated plants (control): • 0%=No effect on the plants • 100%=Complete death of the plants
(§9) Nrs. 11,4,2,3 compared with a hydroacetone dispersion containing the Compound CR1 described in EP0297378.

Echinochloa crus-galli = test: Herbicidal activity in post-emergence; details: dose of 250 g/ha, post-emergence (BBCH 11-12), twenty-one days after treatment, vs untreated control
Method: as §1, §2, §3, §4, §5, §6, §7, §8, §9

Sida spinosa = test: Herbicidal activity in post-emergence; details: dose of 250 g/ha, post-emergence (BBCH 11-12), twenty-one days after treatment, vs untreated control
Method: as §1, §2, §3, §4, §5, §6, §7, §8, §9

Abutilon theophrasti = test: Herbicidal activity in pre-emergence; details: dose of 250 g/ha, twenty-one days after treatment, vs untreated control
Method: (§10) The herbicidal activity of the compounds of the invention in pre-emergence was evaluated according to the following operating modes.
(§11) The plant species of interest (weeds or crops) were sown in pots with a diameter of 10 cm, a height of 10 cm and containing sandy soil. Six pots of each plant species were used.
as §3
(§12) One day after sowing, the first group of pots was treated with a dispersion having the following composition:
(§13) The dispersion was prepared by adding a desired dose of a compound of the present invention to a hydroacetone solution containing acetone at 20% by volume and Tween 20 at 0.5% by weight, with respect to the total weight of the dispersion and applied on a surface of 2 square meters. […]
as §5, §6, §7, §8
(§14) Nrs. 4 and 2 compared with a dispersion containing the Compound CR1 described in EP0297378 instead of the compound having general formula (I): […]

Amaranthus retroflexus = test: Herbicidal activity in pre-emergence; details: dose of 250 g/ha, twenty-one days after treatment, vs untreated control
Method: as §10, §11, §3, §12, §13, §5, §6, §7, §8, §14

Lolium rigidum = test: Herbicidal activity in pre-emergence; details: dose of 250 g/ha, twenty-one days after treatment, vs untreated control
Method: as §10, §11, §3, §12, §13, §5, §6, §7, §8, §14

Setaria viridis = test: Herbicidal activity in pre-emergence; details: dose of 250 g/ha, twenty-one days after treatment, vs untreated control
Method: as §10, §11, §3, §12, §13, §5, §6, §7, §8, §14

Solanum nigra = test: Herbicidal activity in pre-emergence; details: dose of 250 g/ha, twenty-one days after treatment, vs untreated control
Method: as §10, §11, §3, §12, §13, §5, §6, §7, §8, §14

Row | Molecule | Herbicidal activity in post-emergence (percentage of damage, scale 0-100%) (Digitaria sanguinalis) [%] | Herbicidal activity in post-emergence (percentage of damage, scale 0-100%) (Echinochloa crus-galli) [%] | Herbicidal activity in post-emergence (percentage of damage, scale 0-100%) (Sida spinosa) [%] | Herbicidal activity in pre-emergence (percentage of damage, scale 0-100%) (Abutilon theophrasti) [%] | Herbicidal activity in pre-emergence (percentage of damage, scale 0-100%) (Amaranthus retroflexus) [%] | Herbicidal activity in pre-emergence (percentage of damage, scale 0-100%) (Lolium rigidum) [%] | Herbicidal activity in pre-emergence (percentage of damage, scale 0-100%) (Setaria viridis) [%] | Herbicidal activity in pre-emergence (percentage of damage, scale 0-100%) (Solanum nigra) [%]
1 | 1-(5-tert-butyl-1,3,4-thiadiazol-2-yl)-3,4-dimethyl-2-methoxyethylcarbonate-2H-pyrrol-2-yl-5-one [Compound 3] | 90 | 95 | 90 | – | – | – | – | –
2 | CC1=C(C)C(O)N(c2cc(C(C)(C)C)on2)C1=O (stereo not drawn) [CR1, 1-(5-tert-butylisoxazol-3-yl)-2-hydroxy-3,4-dimethyl-2H-pyrrol-5-one, reference compound] | 40 | 85 | 40 | 90 | 60 | 80 | 79 | 90
3 | COCC(=O)OC1C(C)=C(C)C(=O)N1c1nnc(C(C)(C)C)s1 (stereo not drawn) [Compound 2, 1-(5-tert-butyl-1,3,4-thiadiazol-2-yl)-3,4-dimethyl-2-methoxyacetate-2H-pyrrol-5-one] | 100 | 100 | 90 | 95 | 92 | 100 | 100 | 95
4 | CC1=C(C)C(OC(=O)C2CC2)N(c2cc(C(C)(C)C)on2)C1=O (stereo not drawn) [Compound 4, 1-(5-tert-butylisoxazole-3-yl)-2-cyclo-propanecarbonyloxy-3,4-dimethyl-2H-pyrrol-5-one] | 100 | 100 | 100 | 100 | 80 | 90 | 100 | 100
